Test results reported in ChEMBL document CHEMBL3507680, “University of Dundee, Gates Library screen for HepG2 cell viability”.

experiment: Human HepG2 cell viability assay in 384 well format; format: toxicity, cell-based; design: dose 125 nL, time 70.5 hour; cytotoxicity at 70.5 h: concentration not given beside the values; details: HepG2 cells, read-out: Inhibition

| Structure (SMILES) | cytotoxicity at 70.5 h |
| --- | --- |
| COc1ccc(C)cc1NC(=O)c1c(C)cn(C)c1CC(=O)O | -11% |
| COCCCNc1c(-c2ccc(Cl)cc2)c(=O)c1=O | 6.7% |
| CN1CCN(c2ccc(NS(=O)(=O)c3ccc(Cl)s3)cc2C(=O)O)CC1 | -2.11% |
| O=C(c1ccc(N2CCCCCC2)nn1)N1CCc2ccccc21 | -3.2% |
| CC(C)c1nnc(NC(=O)CSCc2cc(=O)n3ccccc3n2)s1 | -4.94% |
| Cc1cccc2nc(CSCC(=O)Nc3nnc(C(C)C)s3)cc(=O)n12 | -10.6% |
| CCCNC(=O)COc1cc(C)c2c(C)nn(-c3ccc(C)cc3)c2n1 | -2.23% |
| Cc1ccn(CCC(=O)NCc2ccco2)n1 | 0.885% |
| COc1ccccc1N1CCN(C(=O)CCn2ccc(C)n2)CC1 | 23.2% |
| O=C(CCn1cccc1)NCc1ccc(CN2CCCCCC2)o1 | 0.95% |
| CCCNC(=O)COc1cc(C)c2c(C)nn(-c3ccccc3)c2n1 | -4.53% |
| Cc1ccc(NC(=O)c2ccc(=O)n(CC(=O)NC3CCCC3)n2)cc1 | 4.71% |
| CCOCc1nc(N2CCCC2)sc1C(=O)NCc1ccco1 | -5.28% |
| CCOCCCNC(=O)C1(C)CCC(=O)N1c1ccccc1F (configuration not stated) | -3.95% |
| CCOCCCNC(=O)C1(C)CCC(=O)N1c1ccccc1OC (configuration not stated) | -8.49% |
| CC(=O)N1CCC2(C=C(C(=O)NC3CC3)c3ccccc32)CC1 | -13.7% |
| CN(C)C[C@@H]1C[C@@H]2CN(C(=O)Cc3cccs3)CC[C@@H]2N1C | 13.4% |
| C[C@@H]1CN(C(=O)Cc2ccsc2)C[C@]12CCN(CCN(C)C)C2=O | -10.3% |
| CCN1CCOCC2(CCCN(C(=O)c3cccc(O)c3)C2)C1 (configuration not stated) | -6.13% |
| CN1C(=O)CCCC12CCCN(C(=O)c1ccc3c(c1)OCO3)C2 (configuration not stated) | -15.9% |
| O=C(NCC1CC1)C1CCC2(CCN(C(=O)c3cccs3)CC2)O1 (configuration not stated) | -15.2% |

| Structure (SMILES) | cytotoxicity at 70.5 h |
| --- | --- |
| COc1ccc(C(=O)N2CCCC3(CCCC(=O)N3C)C2)cc1 (configuration not stated) | -6.78% |
| COc1ncccc1CN1C[C@@H]2C[C@@H](C(=O)NCC3CC3)N(C)[C@@H]2C1 | -12.2% |
| Cn1cc(CN2CC[C@H]3[C@H]2CC(=O)N3Cc2ccncc2)cn1 | -15.4% |
| CCN1CCOCC2(CCCN(C(=O)c3cnccn3)C2)C1 (configuration not stated) | -14.9% |
| CC(C)NC(=O)CC1COC2(CCN(Cc3ccco3)CC2)C1 (configuration not stated) | 18% |
| O=C1CC2(CCNCC2)C(=O)N1Cc1ccc(F)cc1 | 29.9% |
| CCC(=O)N1C[C@@H]2CCN(c3cnccn3)C[C@@H]2C1 | 35.4% |
| O=C(NCC1CC1)C1CCC2(CCN(C(=O)c3ccncc3)CC2)O1 (configuration not stated) | 10.5% |
| COCCN1CCC2(CCCN(Cc3ccoc3)C2)C1=O (configuration not stated) | 12.2% |
| O=C(c1ccc(F)cc1)N1CCC2(CC1)CC(N1CCOCC1)C2 | -13.1% |
| CC[C@@H]1N(Cc2ccco2)CCC[C@]12CCC(=O)N2C | 12.7% |
| Cc1ccc(CN2CCC3(CC2)CC(CC(=O)NC(C)C)CO3)s1 (configuration not stated) | -7.06% |
| O=C(CC1CC1)N1CCC2(CCCN(CCOc3ccccc3)C2)C1 (configuration not stated) | -11.8% |
| CCOCC(=O)N1C[C@@H]2CCN(c3cnccn3)C[C@@H]2C1 | -3.75% |
| CC(C)CC(=O)N1C[C@@H]2CCN(c3cnccn3)C[C@@H]2C1 | -5.35% |
| O=C1C[C@H]2[C@@H](CCN2C(=O)Cc2ccsc2)N1Cc1cccnc1 | -3.76% |
| CN1[C@@H](C(=O)NCC2CC2)C[C@H]2CN(Cc3ccsc3)C[C@H]21 | 12.6% |
| CN1[C@H](CN2CCCC2)C[C@@H]2CN(C(=O)Cc3ccsc3)CC[C@@H]21 | -10.6% |
| Cc1cccc(CN2C(=O)C[C@H]3[C@@H]2CCN3Cc2nccs2)n1 | -22.3% |
| CN(Cc1cccnc1)C1CC2(CCN(c3ncccn3)CC2)C1 | -15.1% |
| Cc1cccc(CN2C(=O)C[C@@H]3[C@@H]2CCN3Cc2ccsc2)n1 | -8.36% |
